# Data reported in paper PMC10009752 (Journal of Medicinal Chemistry, 2023).
# Test system: CRL-1831 cells
# Experiment: Cytoplasmic cholesterol levels (AmplexRed), CRL-1831
# Type: cell-based, human
# Settings: 10 μM, 4 h
# Method: After 4 h exposure to 10 μM of both compounds at 37 °C, cells were trypsinized, washed with PBS, and pelleted by centrifugation at 8000g for 5 min. Cytoplasmic cholesterol levels were quantitated using the AmplexRed Cholesterol Assay kit.[48] Briefly, the pellets were resuspended in the reaction buffer and lysed with a 29G syringe. The working solution, containing the Amplex Red reagent (300 mM), horseradish peroxidase (2 U/mL), cholesterol oxidase (2 U/mL), and cholesterol esterase (0.2 U/mL) in 1× reaction buffer was freshly prepared before each experiment. […] Working solution (50 μL), 40 μL of 1× reaction buffer, and 40 μL of cell lysates were placed in a 96-well plate and incubated at 37 °C for 30 min. After 4 h, fluorescence measurements were recorded (λexc = 540 nm, λem = 590 nm) using a SpectraMax Gemini XPS microplate reader (Molecular Device, Milan – Italy).
row,Compound,"cytoplasmic cholesterol concentration, CRL-1831"
1,"CCC(C)(C)C(=O)O[C@H]1C[C@@H](C)C=C2C=C[C@H](C)[C@H](CC[C@@H]3C[C@@H](O)CC(=O)O3)[C@H]21 [Simvastatin, reference compound]",significantly decreased

# Test system: 5′-biotinylated dsDNA (DNA, duplex) TGTAATCGTAGGTTGGTCCCATCACCCACC/GGTGGGTGATGGGACCAACCTACGATTACA
# Experiment: resonant mirror optical biosensor kinetics (IAsys plus)
# Settings: 138 mM NaCl, 2.7 mM KCl; PBS (10 mM Na2HPO4), pH 7.4, 37 °C; monoexponential fit
row,Compound,KD
1,COc1ccc(C(=O)c2c(C)nn(-c3ccccc3)c2[O-])cc1.COc1ccc(C(=O)c2c(C)nn(-c3ccccc3)c2[O-])cc1.COc1ccc(C(=O)c2c(C)nn(-c3ccccc3)c2[O-])cc1.[Ga+3],3.34 ± 1.67 µM
2,Cc1nn(-c2ccccc2)c([O-])c1C(=O)c1ccc(C(C)(C)C)cc1.Cc1nn(-c2ccccc2)c([O-])c1C(=O)c1ccc(C(C)(C)C)cc1.Cc1nn(-c2ccccc2)c([O-])c1C(=O)c1ccc(C(C)(C)C)cc1.[Ga+3],3.27 ± 0.78 µM
3,Cc1nn(-c2ccccc2)c([O-])c1C(=O)c1ccccc1.Cc1nn(-c2ccccc2)c([O-])c1C(=O)c1ccccc1.Cc1nn(-c2ccccc2)c([O-])c1C(=O)c1ccccc1.[Ga+3],0.76 ± 0.54 µM

# Continued, values first:
row,KD,Compound
1,3.63 ± 1.88 µM,Cc1nn(-c2ccccc2)c([O-])c1C(=O)c1ccco1.Cc1nn(-c2ccccc2)c([O-])c1C(=O)c1ccco1.Cc1nn(-c2ccccc2)c([O-])c1C(=O)c1ccco1.[Ga+3]
2,2.24 ± 1.36 µM,Cc1nn(-c2ccccc2)c([O-])c1C(=O)c1cccs1.Cc1nn(-c2ccccc2)c([O-])c1C(=O)c1cccs1.Cc1nn(-c2ccccc2)c([O-])c1C(=O)c1cccs1.[Ga+3]
